US10414769B2, “5,8-dimethyl-9-phenyl-5,8-dihydro-6H-pyrazolo[3,4-h]quinazolin-2-yl)-(1H-pyrazol-3-yl)-amines as IGF-1R/IR inhibitors” (Boehringer Ingelheim International GmbH, priority 2015, dated 2019)

What was measured:
Type in all cases: biochemical
MAPK14 (p38 alpha) = target: T1, MAPK14 (p38 alpha) (Homo sapiens, UniProt Q16539); experiment: Z'-LYTE kinase selectivity assay MAPK14
T1 construct: purchased Life Technologies PV 3304
Description: (§1) In order to compare the kinase selectivity of compounds (I) according to the invention with known prior art compounds the commercially provided SelectScreen® Kinase Profiling Service (Z′-LYTE®) was used (Life Technologies GmbH, Darmstadt, Germany) to investigate the ability of the compounds to inhibit a number of different, representatively selected human kinases. Further details regarding this service are available on the Life Technologies website at
(§2) The Z′-LYTE® biochemical assay employs a fluorescence-based, coupled-enzyme format and is based on the differential sensitivity of phosphorylated and non-phosphorylated peptides to proteolytic cleavage. The peptide substrate is labeled with two fluorophores—one at each end—that make up a FRET pair.
(§3) In the primary reaction, the kinase transfers the gamma-phosphate of ATP to a single tyrosine, serine or threonine residue in a synthetic FRET-peptide. In the secondary reaction, a site-specific protease recognizes and cleaves non-phosphorylated FRET-peptides. Phosphorylation of FRET-peptides suppresses cleavage by the Development Reagent. Cleavage disrupts FRET between the donor (i.e., coumarin) and acceptor (i.e., fluorescein) fluorophores on the FRET-peptide, whereas uncleaved, phosphorylated FRET-peptides maintain FRET. A ratiometric method, which calculates the ratio (the Emission Ratio) of donor emission to acceptor emission after excitation of the donor fluorophore at 400 nm, is used to quantitate reaction progress, as shown in the equation below.
(§4) The Test Compounds are screened at 1 μM.
After the 1 hour Kinase Reaction incubation, 5 μL of a 1:1024 dilution of Development Reagent A is added.

AKT2 (PKB beta) = target: T2, AKT2 (PKB beta) (Homo sapiens, UniProt P31751); experiment: Z'-LYTE kinase selectivity assay AKT2
T2 construct: purchased Life Technologies PV3975
T2 sequence (P31751 whole entry): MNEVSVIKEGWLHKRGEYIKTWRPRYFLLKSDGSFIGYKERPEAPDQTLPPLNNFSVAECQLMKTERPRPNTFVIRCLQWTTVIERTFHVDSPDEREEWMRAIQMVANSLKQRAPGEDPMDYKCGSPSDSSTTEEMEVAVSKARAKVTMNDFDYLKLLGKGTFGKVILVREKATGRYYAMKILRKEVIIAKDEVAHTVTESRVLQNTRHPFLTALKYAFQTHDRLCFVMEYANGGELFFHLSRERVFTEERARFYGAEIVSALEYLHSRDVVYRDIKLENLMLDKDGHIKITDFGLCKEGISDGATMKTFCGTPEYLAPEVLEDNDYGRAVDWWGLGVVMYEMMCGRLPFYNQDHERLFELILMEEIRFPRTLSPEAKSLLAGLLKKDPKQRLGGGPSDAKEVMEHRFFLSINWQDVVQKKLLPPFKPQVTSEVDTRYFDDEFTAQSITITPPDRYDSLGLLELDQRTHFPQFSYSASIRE
Description: as §1, §2, §3, §4
The 2×AKT2 (PKB beta) (# PV3975)/Ser/Thr 06 (Z′-LYTE® Kinase Assay Kit—Ser/Thr 6 Peptide, # PV 3179) mixture is prepared in 50 mM HEPES pH 7.5, 0.01% BRIJ-35, 10 mM MgCl2, 1 mM EGTA. The final 10 μL Kinase Reaction consists of 0.78-40 ng AKT2 (PKB beta) and 2 μM Ser/Thr 06 in 50 mM HEPES pH 7.5, 0.01% BRIJ-35, 10 mM MgCl2, 1 mM EGTA. After the 1 hour Kinase Reaction incubation, 5 μL of a 1:4096 dilution of Development Reagent A is added.

PDK1 Direct = target: T3, PDK1 Direct (Homo sapiens, UniProt O15530); experiment: Z'-LYTE kinase selectivity assay PDK1
T3 sequence (O15530 1-556): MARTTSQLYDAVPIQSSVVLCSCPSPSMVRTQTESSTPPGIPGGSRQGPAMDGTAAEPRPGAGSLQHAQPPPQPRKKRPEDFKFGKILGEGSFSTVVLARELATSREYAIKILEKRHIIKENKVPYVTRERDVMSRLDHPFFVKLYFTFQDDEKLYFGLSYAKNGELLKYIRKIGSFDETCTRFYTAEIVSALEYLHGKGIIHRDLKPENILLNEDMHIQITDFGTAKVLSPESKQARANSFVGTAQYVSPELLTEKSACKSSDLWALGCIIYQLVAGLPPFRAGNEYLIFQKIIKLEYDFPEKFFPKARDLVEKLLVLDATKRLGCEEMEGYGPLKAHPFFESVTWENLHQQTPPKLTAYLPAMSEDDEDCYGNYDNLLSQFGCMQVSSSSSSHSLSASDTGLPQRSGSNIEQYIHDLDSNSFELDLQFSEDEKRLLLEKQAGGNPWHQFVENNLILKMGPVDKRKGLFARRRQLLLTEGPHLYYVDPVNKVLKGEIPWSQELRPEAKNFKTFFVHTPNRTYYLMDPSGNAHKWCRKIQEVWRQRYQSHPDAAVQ
Description: as §1, §2, §3, §4
The 2×PDK1 Direct/Ser/Thr 07 (Z′-LYTE® Kinase Assay Kit—Ser/Thr 7 Peptide, # PV 3180) mixture is prepared in 50 mM Tris pH 8.5, 0.01% BRIJ-35, 10 mM MgCl2, 1 mM EGTA, 0.02% NaN3. The final 10 μL Kinase Reaction consists of 5.04-29.4 ng PDK1 Direct and 2 μM Ser/Thr 07 in 50 mM Tris/HEPES pH 8.0, 0.01% BRIJ-35, 10 mM MgCl2, 1 mM EGTA, 0.01% NaN3. After the 1 hour Kinase Reaction incubation, 5 μL of a 1:65000 dilution of Development Reagent A is added.

MAPK8 (JNK1) = target: T4, MAPK8 (JNK1) (Homo sapiens, UniProt P45983); experiment: Z'-LYTE kinase selectivity assay MAPK8
T4 construct: purchased Life Technologies PV 3593
T4 sequence (P45983 whole entry): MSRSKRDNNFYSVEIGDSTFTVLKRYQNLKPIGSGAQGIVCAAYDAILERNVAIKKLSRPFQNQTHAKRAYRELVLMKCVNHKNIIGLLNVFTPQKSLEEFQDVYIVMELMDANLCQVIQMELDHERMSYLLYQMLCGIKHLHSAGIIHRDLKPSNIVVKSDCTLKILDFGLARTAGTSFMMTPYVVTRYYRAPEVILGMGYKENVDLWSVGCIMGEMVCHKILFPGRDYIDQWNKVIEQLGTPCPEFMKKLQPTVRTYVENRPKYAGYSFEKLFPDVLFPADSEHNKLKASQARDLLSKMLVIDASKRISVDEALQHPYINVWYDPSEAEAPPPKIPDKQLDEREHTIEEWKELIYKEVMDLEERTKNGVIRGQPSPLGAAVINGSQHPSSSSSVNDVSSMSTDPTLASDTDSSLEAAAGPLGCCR
Description: as §1, §2
as §3, with “Cleavage disrupts FRET between the donor (i.e., coumarin) and acceptor (i.e., fluorescein) fluorophores on the FRET-peptide, whereas uncleaved, phosphorylated FRET-peptides maintain FRET.” left out, “below. […]” for “below.”

MAPK9 (JNK2) = target: T5, MAPK9 (JNK2) (Homo sapiens, UniProt P45984); experiment: Z'-LYTE kinase selectivity assay MAPK9
T5 construct: purchased Life Technologies PV 4018
T5 sequence (P45984 whole entry): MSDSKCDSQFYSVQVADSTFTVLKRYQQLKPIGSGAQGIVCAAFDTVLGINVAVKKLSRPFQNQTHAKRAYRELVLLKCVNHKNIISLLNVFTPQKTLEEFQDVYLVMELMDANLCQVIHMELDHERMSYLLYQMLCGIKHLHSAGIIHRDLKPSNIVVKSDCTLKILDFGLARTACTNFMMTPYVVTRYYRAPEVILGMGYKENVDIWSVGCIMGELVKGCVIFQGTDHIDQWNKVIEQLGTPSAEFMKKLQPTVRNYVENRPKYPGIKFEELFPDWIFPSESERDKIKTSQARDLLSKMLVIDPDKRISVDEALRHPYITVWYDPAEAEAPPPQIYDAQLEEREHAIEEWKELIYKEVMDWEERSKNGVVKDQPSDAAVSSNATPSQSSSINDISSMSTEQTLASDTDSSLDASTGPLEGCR
Description: as §1, §2
as §3, with “Cleavage disrupts FRET between the donor (i.e., coumarin) and acceptor (i.e., fluorescein) fluorophores on the FRET-peptide, whereas uncleaved, phosphorylated FRET-peptides maintain FRET.” left out, “below. […]” for “below.”

T1 sequence (Q16539 whole entry): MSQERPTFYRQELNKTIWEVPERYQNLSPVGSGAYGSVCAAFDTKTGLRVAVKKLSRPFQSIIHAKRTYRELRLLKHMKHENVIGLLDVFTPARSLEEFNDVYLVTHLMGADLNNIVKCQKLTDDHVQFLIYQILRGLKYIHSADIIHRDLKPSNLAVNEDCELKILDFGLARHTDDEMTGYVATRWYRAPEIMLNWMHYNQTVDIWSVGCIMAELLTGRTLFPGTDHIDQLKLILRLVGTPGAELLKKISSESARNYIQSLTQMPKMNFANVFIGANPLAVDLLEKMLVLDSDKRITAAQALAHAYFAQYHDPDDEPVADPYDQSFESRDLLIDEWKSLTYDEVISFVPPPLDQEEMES

SMILES | inhibition at 1 µM (MAPK14 (p38 alpha)) | inhibition at 1 µM (AKT2 (PKB beta)) | inhibition at 1 µM (PDK1 Direct) | inhibition at 1 µM (MAPK8 (JNK1)) | inhibition at 1 µM (MAPK9 (JNK2))
C[C@@H]1Cc2nn(C)c(-c3ccccc3)c2-c2nc(Nc3ccn(CCN4CCN(C)CC4)n3)ncc21 [Compound I-1] | -5% | 3% | -2% | – | –
C[C@@H]1Cc2nn(C)c(-c3ccccc3)c2-c2nc(Nc3ccn(CCN4CCN(CC(=O)OC5CCOCC5)CC4)n3)ncc21 [Compound I-8] | -5% | 4% | 5% | – | –
C[C@@H]1Cc2nn(C)c(-c3ccccc3)c2-c2nc(Nc3ccn(CCN4CCN(CC(C)(C)O)CC4)n3)ncc21 [Compound I-3] | 2% | 7% | 9% | – | –
CC(O)CN1CCN(CCn2ccc(Nc3ncc4c(n3)-c3c(nn(C)c3-c3ccccc3)C[C@H]4C)n2)CC1 (some centres unmarked) [Compound I-7] | 2% | 7% | 3% | – | –
C[C@@H]1Cc2nn(C)c(-c3ccccc3)c2-c2nc(Nc3ccn(CCN4CCOCC4)n3)ncc21 [Compound I-2] | 7% | 1% | 1% | – | –
C[C@@H]1Cc2nn(C)c(-c3ccccc3)c2-c2nc(Nc3ccn(CCN4CCN(CC5CCCO5)CC4)n3)ncc21 (some centres unmarked) [Compound I-9] | 4% | 2% | 6% | – | –
COCCN1CCN(CCn2ccc(Nc3ncc4c(n3)-c3c(nn(C)c3-c3ccccc3)C[C@H]4C)n2)CC1 [Compound I-11] | 1% | 3% | 20% | 12% | 7%
